1 substance from patent US12403184B2, “Compositions and methods for treating neurodegenerative disroders” (priority 2018, dated 2025) can be followed below.

The subject of experiment [1] is neurons derived from HD patient-iPS cells. Briefly: Mitochondrial and neuronal morphology in neurons derived from iPS cells. It counts as cell-based, human. Here is the method: iPS cells from a normal subject and a HD patient (carrying 41 CAG repeats) were differentiated into neurons using the protocol from our previous studies. Briefly, the iPS cells were plated onto 6-well plates precoated with 2.5% Matrigel and allowed to reach 90% confluence in feeder-free medium. For the first 10 days, the cells were treated with SB431542 (10 μM; Tocris Bioscience) and Noggin (100 ng/ml) in Neural Media (NM) containing Neurobasal and DMEM (1:1), B-27 supplement minus vitamin A (50×, Invitrogen), N2 supplement (100×, Invitrogen), GlutaMax (Invitrogen, 100×), FGF2 ([…]) and EGF ([…]), and 100 units/ml penicillin and 100 μg/ml streptomycin). For the next 10 days, the cells were treated with human recombinant Sonic hedgehog (SHH, 200 ng/ml), DKK1 (100 ng/ml) and BDNF (20 ng/ml), and 10 μM Y27632 (Sigma) in neuronal differentiation medium containing Neurobasal and DMEM (1:3), B27, N2, GlutaMax, and PS. Cells were then switched to treatment with BDNF (20 ng/ml), ascorbic acid (200 μM, Sigma-Aldrich), cAMP (0.5 mM, Sigma-Aldrich), and Y27632 (10 μM) in neuronal differentiation medium. All growth factors were purchased from PeproTech (Rocky Hill, NJ, USA). Twenty days after the initiation of differentiation, the neurons (about 5000 cells) were plated onto 12-mm poly-Dlysine/laminine-coated coverslips and grown in 24-well plates in neuronal differentiation medium.
Neurons derived from iPS cells were stained with anti-Tom20 (a mitochondrial marker) and anti-GAD67 (a striatal neuronal marker). Quantitation of mitochondrial length along the neurites was conducted only in the neurons immuno-positive for GAD67. To analyze dendrite and axon outgrowth of neurons, cells were stained with anti-MAP2 (a dendritic marker) and anti-GAD67 or anti-Tau (an axonal marker) and anti-DARPP32 (a medium spiny neuron marker). The length of MAP2+ dendrite and Tau+ axon in the neurons immuno-positive for GAD67 or DARPP32 was quantitated, respectively. At least 50 neurons/group were counted.

Another experiment addresses T1, ATAD3A (Mus musculus, UniProt Q925I1).
T1 construct: endogenous in cells; host or cells: Neuro2A cells
T1 sequence (Q925I1 1-591): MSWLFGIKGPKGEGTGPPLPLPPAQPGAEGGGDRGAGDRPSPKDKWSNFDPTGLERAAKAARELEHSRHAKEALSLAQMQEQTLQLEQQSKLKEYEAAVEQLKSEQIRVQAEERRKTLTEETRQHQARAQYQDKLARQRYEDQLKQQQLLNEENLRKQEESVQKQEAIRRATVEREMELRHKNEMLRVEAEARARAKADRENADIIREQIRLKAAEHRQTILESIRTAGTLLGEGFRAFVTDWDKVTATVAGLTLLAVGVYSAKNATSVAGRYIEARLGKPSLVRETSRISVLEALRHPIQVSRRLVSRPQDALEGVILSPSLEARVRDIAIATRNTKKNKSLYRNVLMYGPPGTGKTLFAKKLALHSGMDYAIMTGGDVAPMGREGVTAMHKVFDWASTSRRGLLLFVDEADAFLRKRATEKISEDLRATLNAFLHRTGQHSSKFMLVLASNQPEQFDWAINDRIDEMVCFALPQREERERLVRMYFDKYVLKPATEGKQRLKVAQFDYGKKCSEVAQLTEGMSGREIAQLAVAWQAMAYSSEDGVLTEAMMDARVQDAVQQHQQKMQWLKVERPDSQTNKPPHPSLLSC
Briefly: ATAD3A dimerization by western blot, Neuro2A cells. The experiment is classed as cell-based. Conditions: Neuro2A cells exposed to 3-NP (5 mM, 7 hours), DA1 1 μM overnight. The protocol:
To analyze dimerization of ATAD3A under non-reducing conditions, the cells or tissues were harvested and lysed with total lysates buffer. An equal amount of proteins was subject to 8% SDS-PAGE analysis in the presence or absence of β-mercaptoethanol (β-ME). For in vitro BMH crosslinking, the cell lysates were incubated with 1 mM BMH at r.t. for up to 25 min and quenched with 0.1% β-ME, followed by SDS-PAGE analysis. For in-vivo crosslinking, the cells were treated with cell-permeable crosslinker BMH (1 mM) for 20 min at 37° C. After crosslinking, the cells were quenched in PBS with 0.1% β-ME. For DSP crosslinking, the cells were treated with cell-permeable crosslinker for 5 min at 37° C., followed by quenching and washing with 10 mM Glycine in PBS. For formaldehyde (FA) crosslinking, the cells were incubated with PBS buffer containing 1% FA for 20 min at r.t., and the crosslinking reaction was terminated by washing in PBS containing 100 mM glycine. The cells were then lysed and subject to 8% SDS-PAGE analysis. For DTSSP crosslinking of proteins in mitochondrial fractions, isolated mitochondria samples were suspended in the mitochondrial lysis buffer (250 mM sucrose, 20 mM HEPES-NaOH, pH 7.5, 10 mM KCl, 1.5 mM MgCl2, 1 mM EDTA, 1 mM EGTA and protease inhibitor). An equal amount of crude mitochondria was incubated at 30° C. in the presence of 0.5 mM DTSSP. […]

A further experiment relates to HdhQ7 and HdhQ111 cells. Briefly: Mitochondrial respiratory activity (Seahorse analyzer). The experiment is classed as cell-based, mouse. Here is the method: Mitochondrial respiration activity in HdhQ7 and HdhQ111 cells was analyzed using a Seahorse Bioscience XFp Extracellular Flux Analyzer. The cells were seeded in XFp […] microplates at 6,000 cells per well in 50 μl of growth medium. One hour prior to measuring oxygen consumption, the cell culture media was replaced with XF assay medium and maintained in a non-CO2 incubator for 1 h. The sensor cartridges were placed in the XFp Analyzer according to the manufacturer's instructions for the Mito Stress Test kit. In brief, mitochondrial function was determined by the sequential injection of oligomycin A (2.5 μg/mL), FCCP (1 μM), and antimycin A (4 μM). Following each experiment, the total cellular number of each well was determined using DAPI staining.

The mark [2] stands for this setting: striatal neurons derived from HD patient iPS cells.

Where no end group is shown, it is not given here.

As for “YGRKKRRQRRRGGEDKRKT-NH2 [DA1, YGRKKRRQRRR-GG-EDKRKT-NH2]”, the mitochondrial morphology entry in experiment [1] (cells derived from iPS cells of normal subject) was “no observed effects”. For the same substance, the “length of mitochondria along the neurites of GAD67+-neurons” value in experiment [1] (neurons derived from HD patient-iPS cells) was “increased”. In experiment [1] (setting [2]), the “MAP2+ dendritic outgrowth” value is recorded as “improved” and the “Tau+ axonal outgrowth” value was “improved”. The “dimerization of ATAD3A” value at ATAD3A is listed as “abolished”. In addition, in the experiment with HdhQ7 and HdhQ111 cells (HdhQ7 cells), the mitochondrial respiratory activity result is on record as “minor effects”. Besides, in the experiment on HdhQ7 and HdhQ111 cells (HdhQ111 cells), the ATP production entry is reported as “improved”, the maximal respiratory capacity entry was “improved” and the spare respiratory capacity result is recorded as “improved”. In addition, the mitochondrial respiratory defects entry in the experiment with HdhQ7 and HdhQ111 cells (HdhQ111 cells, 1 μM/day for 4 days) is listed as “attenuated”.
